In article PMC10671849, “Synthesis and Evaluation of Marine-Inspired Compounds Result in Hybrids with Antitrypanosomal and Antileishmanial Activities” (Marine Drugs, 2023) one finds CC50 and MIC data, which are given here for ten molecules.

Common to all, as to format: cell-based
Series [1] is described as follows: Cytotoxicity MTT assay on PMA-differentiated THP-1 macrophages. As to conditions: human; PMA-differentiated THP-1 macrophages, 72 h, MTT; 100 to 12.5 µM tested; read-out: Cytotoxicity CC50 (µM) 95% CI, THP-1. How it is done: A human leukemia cell line, THP-1 (ATCC® TIB-202™), was cultured in RPMI-1640 medium supplemented with 10% heat-inactivated fetal bovine serum (FBS), 2 mM L-glutamine, 100 IU/mL penicillin/streptomycin, and 20 mM HEPES. The cell line was maintained in a humidified incubator at 37 °C and 5% CO2 by subculture every 3 days in 20 mL of media at a concentration of 2 × 10^5/mL in a T75 flask. All cell culture reagents were purchased from Lonza-Bioscience (Morrisville, NC, USA).
The cytotoxicity effect of compounds on THP-1-derived macrophages was assessed by colorimetric MTT assay (3-(4,5-dimethylthiazol-2-yl)-2,5-diphenyl tetrazolium bromide). Briefly, THP-1 cells were suspended in RPMI complete medium at a density of 1 × 10^6 cells/mL and 100 μL/well and were seeded in a 96-well plate and differentiated into macrophages by addition of 40 ng/mL of phorbol-myristate 13-acetate (PMA, Sigma, Saint Louis, MI, USA) for 24 h, followed by replacement with fresh medium for 24 more h. Subsequently, the cells were incubated with 100 μL of compounds ranging from 100 to 12.5 μM after dilution in the RPMI complete medium. Each condition was carried out in quadruplicate. After 72 h of incubation at 37 °C and 5% CO2, the medium was removed, and 200 μL of 0.5 mg/mL MTT solution diluted in RPMI was added. The plates were incubated for an additional 4 h. Then, 160 μL of media was removed, and the same volume of 2-propanol was added. Absorbance was read at 570 nm using a Synergy 2 Multi-Mode Reader (Biotek, Winooski, VT, USA). Cytotoxicity was evaluated by the determination of the CC50 value (drug concentration that reduced the percentage of viable cells by 50%) and calculated by non-linear regression analysis using GraphPad Prism software, version 8.1.1 for Windows (GraphPad Software, San Diego, CA, USA). The results represent the average of at least three independent experiments. For each compound, the selectivity index (SI) was calculated as the ratio between cytotoxicity in THP-1 (CC50, 72 h) and activity against parasites (IC50, 72 h).
Background: Tetrazolium dyes change colour on reduction, which living cells bring about.

Series [2] concerns Escherichia coli ATCC 25922. The series can be described thus: Antibacterial broth microdilution (CLSI M100-S25), MIC/MLC. The protocol:
(§1) All tested compounds (9a–9d, 10a–10c, 13, 14, and eugenol (1)) were prepared in DMSO (Sigma-Aldrich, St. Louis, MO, USA) at a concentration of 10 mg/mL. The reference drugs used (voriconazole (Sigma-Aldrich, St. Louis, MO, USA) for fungi and quality control; gentamicin (Sigma-Aldrich, St. Louis, MO, USA) for bacterial and quality control) were prepared at 6.4 mg/mL. The stock solutions of the compounds were stored at –20 °C until immediately before the assays and then were diluted in fresh culture medium, RPMI-1640 medium (Biochrom AG, Berlin, Germany) buffered with 3-(N-morpholino)propanesulfonic acid (MOPS—Sigma-Aldrich, St. Louis, MO, USA) for fungi and cation-adjusted Mueller–Hinton broth (MHBII—Becton Dickinson, France) for bacteria, henceforth referred to as RPMI and MHB, respectively.
(§2) Fungal strains, including reference strains and clinical isolates, were used for the study of the antifungal activity: a yeast reference strain from American Type Culture Collection (ATCC), Candida albicans ATCC 10231; filamentous fungi reference strain Aspergillus fumigatus ATCC 240305; and a clinical isolate of dermatophytes Trichophyton rubrum FF5. Candida krusei ATCC 6258 was used as a quality control. All fungal strains were stored in Sabouraud dextrose broth (SDB—Bio-Mèrieux, Marcy L’Etoile, France) with glycerol (20%) at −80 °C and were subcultured in Sabouraud dextrose agar (SDA—Bio-Mèrieux, Marcy L’Etoile, France) for 24–72 h (yeasts and A. fumigatus) or 5–7 days (T. rubrum) before each assay to obtain optimal growth and purity conditions. Two bacteria strains were used, one Gram positive and one Gram negative: Staphylococcus aureus ATCC 25923 and Escherichia coli ATCC 25922, respectively. The bacterial strains were stored in trypticase soy broth (TSB—Biolife, Milan, Italy) with glycerol (10%) at −80 °C and subcultured in Mueller–Hinton agar (MHA—Bio-Mèrieux, Marcy L’Etoile, France) for 24 h before each assay.
(§3) For bacteria, MICs were determined by the broth microdilution method, following the recommendations of the reference method M100-S25 [29].
(§4) Similarly, as previous described, two-fold serial dilutions of each stock solution were prepared using MHB to obtain a range of test concentrations from 16 to 512 μg/mL. Bacterial cell suspensions were prepared from 24-h cultures in saline solution, and the transmittance of cell density was adjusted to 0.5 McFarland standard. Dilutions were performed using MHB to obtain cell final concentrations in the plate of 0.5–2.5 × 10^4 CFU/mL.
(§5) Plates with the prepared serial dilutions of the tested compounds were inoculated with the same volume of the bacterial suspension, and sterility, growth and DMSO controls were included in each assay. Immediately thereafter, the plates were incubated in a humid atmosphere (aerobic environment) for 18–24 h at 36 °C.
(§6) MIC values were considered the minimum concentrations that inhibited the bacterial growth by 100% compared to the growth control. The reference drug, gentamicin, was tested as a quality control, and the results were according to the norms.
(§7) A volume of 10 μL of suspension was collected from wells corresponding to the MIC and the highest following concentration and was deposited in MHA plates. The plates were incubated for 24 h at 36 °C, and the MLC was determined as the lowest concentration at which no bacterial growth was observed.

Series [3] concerns Staphylococcus aureus ATCC 25923. The series is described as above. How it is done:
as §1, §2, §3, §4, §5, §6, §7

Setting [4] is: ATCC25922, broth microdilution, 16 to 512 µg/mL, 18–24 h at 36 °C, read-out: MIC E. coli.
[5] abbreviates: ATCC25923, broth microdilution, 16 to 512 µg/mL, 18–24 h at 36 °C, read-out: MIC S. aureus.

≈ marks a conversion by molar mass, not a printed value. Like-named read-outs stand apart in the source and are kept apart here.

Turning to `C=CCc1ccc(OCc2cn(CC(=O)Nc3ccccc3C(=O)O)nn2)c(OC)c1` [compound 13, 2-(2-(4-((4-allyl-2-methoxyphenoxy)methyl)-1H-1,2,3-triazol-1-yl)acetamido) benzoic acid], the cytotoxic concentration (CC50) at 72 h in series [1] was above 100 µM. Also, the MIC in series [2] (setting [4]) and in series [3] (setting [5]) was above 512 µg/mL throughout.
`C=CCc1cc(Cn2cc(C(=O)Nc3ccc(Cl)cc3C(N)=O)nn2)c(O)c(OC)c1` [9d, 1-(5-allyl-2-hydroxy-3-methoxybenzyl)-N-(2-carbamoyl-4-chlorophenyl)-1H-1,2,3-triazole-4-carboxamide]: the CC50 at 72 h in series [1] is above 100 µM. Moreover, the MIC in series [2] (setting [4]) and in series [3] (setting [5]) was above 512 µg/mL throughout.
As to `C=CCc1cc(Cn2cc(-c3nc4ccc(F)cc4c(=O)[nH]3)nn2)c(O)c(OC)c1` [10c, 2-(1-(5-allyl-2-hydroxy-3-methoxybenzyl)-1H-1,2,3-triazol-4-yl)-6-fluoroquinazolin-4(3H)-one], the CC50 at 72 h in series [1] was above 100 µM. The MIC in series [2] (setting [4]) and in series [3] (setting [5]) was above 512 µg/mL each time.
Turning to `C=CCc1cc(Cn2cc(-c3nc4ccccc4c(=O)[nH]3)nn2)c(O)c(OC)c1` [10a, 2-(1-(5-allyl-2-hydroxy-3-methoxybenzyl)-1H-1,2,3-triazol-4-yl)quinazolin-4(3H)-one], the CC50 at 72 h in series [1] is above 100 µM. The MIC in series [2] (setting [4]) and in series [3] (setting [5]) was above 512 µg/mL each time.
`C=CCc1cc(Cn2cc(C(=O)Nc3ccccc3C(N)=O)nn2)c(O)c(OC)c1` [9a, 1-(5-allyl-2-hydroxy-3-methoxybenzyl)-N-(2-carbamoylphenyl)-1H-1,2,3-triazole-4-carboxamide]: the CC50 at 72 h in series [1] was above 100 µM. For the same molecule, the MIC in series [2] (setting [4]) and in series [3] (setting [5]) was above 512 µg/mL in each case.
Turning to `C=CCc1cc(Cn2cc(C(=O)Nc3ccc(F)cc3C(N)=O)nn2)c(O)c(OC)c1` [9c, 1-(5-allyl-2-hydroxy-3-methoxybenzyl)-N-(2-carbamoyl-4-fluorophenyl)-1H-1,2,3-triazole-4-carboxamide], in series [1], the CC50 at 72 h was 45.8 µM. For the same molecule, the MIC in series [2] (setting [4]) was 256 to 512 µg/mL (≈ 602 to 1200 µM); in series [2] (ATCC25922, second value printed after the MIC of the preceding sentence, read-out: MIC E. coli ("the only MIC evaluated")) it was above 512 µg/mL; in series [3] (setting [5]), 256 µg/mL (≈ 602 µM); in series [3] (ATCC25923, second value printed after the MIC of the preceding sentence, read-out: MIC S. aureus ("the only MIC evaluated")), at most 512 µg/mL.
As to `C=CCc1cc(Cn2cc(-c3nc4ccccc4c(=O)o3)nn2)c(O)c(OC)c1` [compound 14, 2-(1-(5-allyl-2-hydroxy-3-methoxybenzyl)-1H-1,2,3-triazol-4-yl)-4H-benzo[d][1,3]oxazin-4-one], in series [1], the CC50 at 72 h is above 100 µM. Moreover, the MIC in series [2] (setting [4]) and in series [3] (setting [5]) was above 512 µg/mL throughout.
In the case of `C=CCc1cc(Cn2cc(C(=O)Nc3ccc(OC)cc3C(N)=O)nn2)c(O)c(OC)c1` [9b, 1-(5-allyl-2-hydroxy-3-methoxybenzyl)-N-(2-carbamoyl-4-methoxyphenyl)-1H-1,2,3-triazole-4-carboxamide], the CC50 at 72 h in series [1] is above 100 µM. The MIC in series [2] (setting [4]) and in series [3] (setting [5]) was above 512 µg/mL each time.
On to `C=CCc1ccc(O)c(OC)c1` [Eugenol, eugenol, reference compound], for which the CC50 at 72 h in series [1] is above 100 µM. Further, the MIC in series [2] (setting [4]) and in series [3] (setting [5]) was above 512 µg/mL throughout.
In the case of `C=CCc1cc(Cn2cc(-c3nc4ccc(OC)cc4c(=O)[nH]3)nn2)c(O)c(OC)c1` [10b, 2-(1-(5-allyl-2-hydroxy-3-methoxybenzyl)-1H-1,2,3-triazol-4-yl)-6-methoxyquinazolin-4(3H)-one], the CC50 at 72 h in series [1] was above 100 µM. Also, the MIC in series [2] (setting [4]) and in series [3] (setting [5]) was above 512 µg/mL throughout.

The CC50 is the concentration at which the toxic effect on the cells reaches its halfway point. By MIC is commonly meant the lowest concentration that inhibits growth of the organism.
